Assays:
human red blood cells = test: Hemolysis on fresh human blood cells; format: cell-based; conditions: for Hemolysis (HC50, mM): human red blood cells, 30 minutes at 37° C., 0 to 50 mg/ml in PBS
Procedure: To further investigate the cytotoxicity of our polymers and their possible biodegradation products, their hemolysis effects were tested on fresh human blood cells in comparison with commercial CD monomers as describe below. The degree of hemolysis was reported as a percentage of the total efflux of hemoglobin in distilled water (Table 6)
1. Red blood cells were isolated from whole human blood by centrifugation at 1000 g for 10 minutes.
2. The plasma was removed and the red blood cells re-suspended in normal buffed saline (PBS, 0.154 M sodium chloride and 0.01 M phosphate, pH=7.4). The red blood cells were pelleted by centrifugation (1000 g for 10 minutes).
3. Step 2 was repeated twice to remove the heme released from damaged cells.
4. The final pellet was diluted with PBS to give a hematocrit of approximately 12 (or 5%) as determined by centrifugal sedimentation.
5.2 ml of polymer or cyclodextrin solutions of a series of concentrations from 0 to 50 mg/ml in PBS buffer) equilibrated at 37° C. in PBS buffer were equilibrated at 37° C. To this was added 100 ul of a red blood cell suspension followed by mixing of the sample with gentle inversion. The samples were incubated for 30 minutes at 37° C.
6. The intact cells and cellular debris were pelleted by centrifugation at 1000 g for 5 min. The supernatant was analyzed spectrophotometrically at 543 nm for released heme.

[1] = Paclitaxel loading (solubilisation) by CD polymers or CD monomers; format: physicochemical
Procedure: Preparation of Paclitaxel Complexes with CD Polymers or CD Monomers
(A) Co-dissolving Method: This Method is Suitable for all Complexes with Water Soluble Polymers
The aqueous solution of polymer (or monomer controls) (usually about 100 mg/ml) was mixed with equal volume (usually 40 to 2000 ul) of the paclitaxel solution (Cpaclitael=0.1 to 8.0 mg/ml in methanol). The mixture was incubated at room temperature for about half an hour. Then the solvents were removed in a centrifuge concentrator at room temperature. The concentrated syrup or wax solid was reconstituted by adding water or PBS buffer to the original volume. The mixture was usually a clear or slightly cloudy solution after 30 minutes of reconstitution. The un-dissolved paclitaxel particles were removed either by ultra-filtration (0.2 um filter) or by centrifugation (20 minutes at 20,800 g and room temperature). The paclitaxel concentration in the clear supernatant was quantified by UV absorbance at […] by using the corresponding cyclodextrin polymer solution as the background calibration.
(B) Dialysis Method: This Method is Suitable for the Preparation of all Paclitaxel/polymer Complex Solutions:
The methanol solution of the polymer (usually […]) was mixed with equal volume (100 ul) of paclitaxel solution (1 to 3 mg/ml in methanol). The clear mixture was incubated at room temperature for about half an hour at room temperature, followed by dialysis (MWCO=12,000) overnight against 2 L water. The dialysis solution was usually a clear solution. Trace amounts of paclitaxel particles were removed either by ultra-filtration (0.2 um filter) or by centrifugation (20 minutes at 20,800 g and room temperature). The clear solution was stored at 4° C. or below.

[2] = at 50% CD concentrations; cited from earlier work
[3] = Stability of Taxol/CD complexes in 50% fetal bovine serum; format: physicochemical; conditions: paclitaxel complex, 50% Serum, room temperature
Procedure: (§1) Stability of Taxol/CD Complexes in 50% Serum or After 10 Fold Dilution in PBS:
(§2) • (A) Stability in 50% fetal bovine serum: Taxol/PEG-L8-AcCD (2.0 mg/50 mg in 1.0 ml PBS buffer) or Taxol/DMCD (0.5 mg/50 mg in PBS buffer) complex solutions were prepared as describe in method A of example 7. Fifty micro liters of the complex solutions were diluted with equal volume of fetal bovine serum respectively. Both mixtures were centrifuged at […] at room temperature after incubation at room temperature for 2 hours, 21 hours, 49 hours and 144 hours, respectively. The Taxol concentration in each supernatant was quantified by measuring the UV absorption at 230 nm. • (B) Stability after 10 fold dilution with PBS: Taxol/PEG-L8-AcCD (2.0 mg/50 mg in 1.0 ml PBS buffer) or Taxol/DMCD (0.5 mg/50 mg in PBS buffer) complex solutions were prepared as describe in example 10. Fifty micro liters of the complex solutions were diluted with 450 micro liter of PBS buffer, respectively. Both mixtures were centrifuged at […] at room temperature after incubated room temperature for 2 hours, 21 hours, 49 hours and 144 hours. The Taxol concentration in each supernatant was quantified by measuring the UV absorption at 230 nm.

[4] = Stability of Taxol/CD complexes after 10 fold dilution with PBS; format: physicochemical; conditions: paclitaxel complex, 10X PBS, room temperature
Procedure: as §1, §2

[5] = Drug amount in 1.0 ml water or PBS in the presence of 50 mg of polymer or other CD derivatives

## OC[C@H]1O[C@@H]2O[C@H]3[C@H](O)[C@@H](O)[C@@H](O[C@H]4[C@H](O)[C@@H](O)[C@@H](O[C@H]5[C@H](O)[C@@H](O)[C@@H](O[C@H]6[C@H](O)[C@@H](O)[C@@H](O[C@H]7[C@H](O)[C@@H](O)[C@@H](O[C@H]8[C@H](O)[C@@H](O)[C@@H](O[C@H]1[C@H](O)[C@H]2O)O[C@@H]8CO)O[C@@H]7CO)O[C@@H]6CO)O[C@@H]5CO)O[C@@H]4CO)O[C@@H]3CO [βCD, β-cyclodextrin]
Human red blood cells
  Hemolysis (HC50, mM): 4.0 mM

## Mono-6-(8-amino-3,6-dioxy-octylamino)-6-deoxy-β-cyclodextrin [CD-L8-NH2]
Human red blood cells
  toxicity compared with natural β-cyclodextrin: much less toxic
  Hemolysis (HC50, mM): 25 mM

## hydoxylpropyl β-cyclodextrin [HP-CD]
[1]; [5]
  Paclitaxel loading (mg/50 mg polymer): <0.05 mg/50 mg polymer
Human red blood cells
  Hemolysis (HC50, mM): 35 mM
[2]
  paclitaxel dissolved: about 0.7 mg/ml

## methyl-β-cyclodextrin [DM-CD]
[1]; at day 1, drug amount in 1.0 ml water or PBS in the presence of 50 mg of CD derivative
  Paclitaxel loading (mg/50 mg polymer): ˜0.2 (at day 1) mg/50 mg polymer
[3]; 0 hour
  Remaining paclitaxel % in diluted solution: 100%
[3]; 2 hour
  Remaining paclitaxel % in diluted solution: 100%
[3]; 21 hour
  Remaining paclitaxel % in diluted solution: 100%
[3]; 49 hour
  Remaining paclitaxel % in diluted solution: 100%
[3]; 144 hour
  Remaining paclitaxel % in diluted solution: 100%
[4]; 0 hour
  Remaining paclitaxel % in diluted solution: 100%
[4]; 2 hour
  Remaining paclitaxel % in diluted solution: 86%
[4]; 21 hour
  Remaining paclitaxel % in diluted solution: 13%
Human red blood cells
  Hemolysis (HC50, mM): 1.0 mM
[2]
  paclitaxel dissolved: ~33 mg/mL

## sulfobutylether-β-cyclodextrin [(SBE)7-CD]
[1]; [5]
  Paclitaxel loading (mg/50 mg polymer): <0.05 mg/50 mg polymer
